Our source for the IC50 and Solubility values is US9616037B2, “Aryl-phenyl-sulfonamido-cycloalkyl compounds and their use” (PIMCO 2664 Limited, priority 2008, dated 2017).

Converted amounts (≈) assume the structure as drawn. Read-outs that look alike come from different tables or passages of the source.

For one series, the system named is J774 macrophages. In words: Alamar Blue macrophage J774 viability assay. In kind it is cell-based. The conditions noted are these: J774 cells, 72 hours with compound, Alamar Blue readout. The method, then: (§1) Initial screening of candidate compounds was performed using in vitro assays to determine potency, metabolic stability and solubility in biologically relevant fluids. Potency was assessed using a viability assay based on the survival of the J774 macrophage cell line. Macrophages are closely related to osteoclasts and have been used previously as a model system for osteoclast survival (see, e.g., Luckman et al., 1998). Like osteoclasts, J774 macrophages are dependent on continued NFκB activation for survival, thereby providing a valuable screen for compounds with anti-inflammatory activity. Metabolic stability was measured by determining the rate of disappearance of compound in the presence of human liver microsomal preparations, as quantified by LC-MS/MS. Solubility was measured by equilibration of the compound in fasted state simulated intestinal fluid (FaSSIF) and quantified by HPLC.
In vitro potency as anti-inflammatory agents was determined for a number of APSAC compounds by incubation with J774 macrophages and subsequent determination of cell viability.
J774 cells were plated at 10^4 cells per well in 100 μL αMEM (α Modified Eagle Medium) in 96-well plates and grown overnight. The next day, test compounds were added to the cultures, and cultures were continued for another 72 hours. At the end of the culture period, cell survival was determined using an Alamar Blue assay as previously described (see, e.g., Nociari et al., 1998).
Alamar Blue is an oxidation-reduction sensitive indicator. The dye itself is in the oxidised state, which is blue and non-fluorescent. The dye can accept electrons from reducing species, such as NADPH and FADH, to form a reduced dye species, which is red and fluorescent. Thus the transformation from oxidised form to reduced form can be measured by fluorimetric or colourimetric means. For fluorescence measurements, 530-560 nm excitation and 590 nm emission wavelengths are typically used. For colourimetric measurements, absorbance at 570 nm (reduced form) and 600 nm (oxidised form) is typically measured. A simple calculation is performed to determine the relative quantities of the two species.
A high ratio of the reducing species, NADPH and FADH, to the corresponding oxidised species, NADP and FAD, is an indicator that cells are proliferating and viable. A low ratio indicates cells that are quiescent or non-viable.
Briefly, Alamar Blue (Biosource International) was added undiluted to the each well (1:10 v/v, 10 μL). The plate was incubated at 37° C. for 3-4 hours and the fluorescence was measured at 590 nm, with a 25 nm bandwidth. A high reading indicated cells with normal viability, and a low reading indicated cells that have been damaged and are no longer proliferating normally. The controls gave a high fluorescence reading, indicating a high number of live, healthy cells. A potent test compound gave a low fluorescence reading. The average results for each test compound (n=5) were expressed as a percent (%) of the average control value.
Addition of Compounds. All of the compounds studied were made up as 100 mM solutions in DMSO. These stock solutions were then diluted 1000-10000× in culture medium (αMEM). From these 100 μM or 10 μM solutions, convenient quantities (3-33 μL) were added directly to the wells so as to give the desired final compound concentration.

A short description of series [1]: Thermodynamic aqueous solubility in fasted state simulated intestinal fluid (FaSSIF). In kind it is physicochemical. The settings on record: equilibrated at 25° C. for 24 hours, HPLC. On the procedure:
as §1, with “Macrophages are closely related to osteoclasts and have been used previously as a model system for osteoclast survival (see, e.g., Luckman et al., 1998).” left out
Thermodynamic aqueous solubility was measured by equilibration of a number of APSAC compounds, in the solid state, with fasted state simulated intestinal fluid (FaSSIF) and quantified by HPLC. Measurement of solubility in FaSSIF provides a valuable model for the prediction of drug dissolution following oral administration.
The pH was adjusted to 6.5 using 1 M NaOH solution.
0.6 mL of a solution containing 100 mg/mL lecithin in methylene chloride was added. The methylene chloride was eliminated under vacuum at about 40° C. The vacuum was drawn for 15 minutes at 250 mbar, followed by 15 minutes at 100 mbar. […] After cooling to room temperature, the solution was then adjusted to 100 mL with blank FaSSIF.
The suspension was equilibrated at 25° C. for 24 hours, and then the pH was measured. The suspension was then filtered through a glass fibre C filter into a 96-well plate. The filtrate was then diluted by a factor of 100. Quantification was made by HPLC with reference to a standard solution of compound at approximately 0.1 mg/mL in DMSO. Different volumes of the standard, diluted and undiluted sample solutions were injected. […] Analysis was performed on an Agilent HP1100 series system equipped with a diode array detector and using ChemStation software vB.02.01-SR1.

Usually IC50 stands for the midpoint of a concentration-inhibition curve. As for `CCN(CC)C1CCC(NS(=O)(=O)c2ccc(-c3ccc(F)cc3F)cc2)CC1` (centres unmarked) [ABD819, N-(4-(Diethylamino)cyclohexyl)-2′,4′-difluorobiphenyl-4-sulfonamide], in the series on J774 macrophages (Mus musculus, read-out: IC50), the concentration for half-maximal inhibition (IC50) is 2400 nM.

On to `Cc1cc(S(=O)(=O)N[C@H]2CC[C@H](O)CC2)ccc1-c1ccc(F)cc1F` [ABD735, 2′,4′-Difluoro-N-(trans-4-hydroxycyclohexyl)-2-methylbiphenyl-4-sulfonamide], for which the 50% inhibitory concentration (IC50) in the series with J774 macrophages (Mus musculus, read-out: IC50) was determined as 90 nM.

In the case of `O=S(=O)(N[C@H]1CC[C@H](O)CC1)c1ccc(-c2ccc(F)cc2F)cc1Cl` [ABD705, 3-Chloro-2′,4′-difluoro-N-(trans-4-hydroxycyclohexyl)biphenyl-4-sulfonamide], the IC50 with J774 macrophages (Mus musculus, read-out: IC50) turned out to be 830 nM.

Take `O=S(=O)(Nc1ccc(CO)cc1)c1ccc(-c2ccc(F)cc2F)cc1` [ABD466, 2′,4′-difluoro-biphenyl-4-sulfonic acid (4-hydroxymethyl-phenyl)-amide, reference compound]: the IC50 in the series with J774 macrophages (Mus musculus, read-out: IC50) was found to be 3000 nM. As for `O=S(=O)(N[C@H]1CC[C@H](O)CC1)c1ccc(-c2ccc(OC(F)(F)F)cc2)c(F)c1` [ABD665, 2-Fluoro-N-(trans-4-hydroxycyclohexyl)-4′-(trifluoromethoxy)biphenyl-4-sulfonamide], the half-maximal inhibitory concentration (IC50) with J774 macrophages (Mus musculus, read-out: IC50) stood at 4900 nM. As to `O=S(=O)(N[C@H]1CC[C@H](O)CC1)c1ccc(-c2ccc(Cl)c(C(F)(F)F)c2)cc1` [ABD712, 4′-Chloro-N-(trans-4-hydroxycyclohexyl)-3′-(trifluoromethyl)biphenyl-4-sulfonamide], the IC50 with J774 macrophages (Mus musculus, read-out: IC50) is 5460 nM. Same read-out and setting: next, `O=S(=O)(N[C@H]1CC[C@H](O)CC1)c1ccc(-c2ncc(Cl)cc2Cl)cc1` [ABD836, 4-(3,5-Dichloropyridin-2-yl)-N-(trans-4-hydroxycyclohexyl) benzene sulfonamide]: 280 nM; `O=S(=O)(N[C@H]1CC[C@H](O)CC1)c1ccc(-c2ncc(Cl)cn2)cc1` [ABD837, 4-(5-Chloropyrimidin-2-yl)-N-(trans-4-hydroxycyclohexyl)benzenesulfonamide]: 8880 nM. Consider `CCN(C)C1CCC(NS(=O)(=O)c2ccc(-c3ccc(F)cc3F)cc2)CC1` (centres unmarked) [ABD822, N-(4-(Ethyl(methyl)amino)cyclohexyl)-2′,4′-difluorobiphenyl-4-sulfonamide], for which the IC50 with J774 macrophages (Mus musculus, read-out: IC50) turned out to be 6980 nM. In general, Solubility refers to the dissolved amount per volume that the medium holds. Low readings indicate little dissolved substance, high ones much dissolved substance. As for `O=S(=O)(Nc1cccc(CO)c1)c1ccc(-c2ccc(Cl)cc2F)cc1` [ABD575, reference compound], in the series with J774 macrophages (read-out: IC50), the half-inhibitory concentration (IC50) was 400 nM. For the same molecule, the Solubility in series [1] is recorded as 0.07 mg/mL (≈ 179 µM).

Turning to `O=S(=O)(N[C@H]1CC[C@H](O)CC1)c1ccc(-c2cncnc2)cc1` [ABD861, N-(trans-4-Hydroxycyclohexyl)-4-(pyrimidin-5-yl)benzenesulfonamide], in the series with J774 macrophages, the concentration for half-maximal inhibition (IC50) result is reported as “Inactive”.

For `N#Cc1ccc(-c2ccc(S(=O)(=O)N[C@H]3CC[C@H](O)CC3)c(Cl)c2)cc1` [ABD732, 3-Chloro-4′-cyano-N-(trans-4-hydroxycyclohexyl)biphenyl-4-sulfonamide], the 50% inhibitory concentration (IC50) in the series with J774 macrophages (Mus musculus, read-out: IC50) was 4320 nM. For `Cc1cc(S(=O)(=O)N[C@H]2CC[C@H](O)CC2)ccc1-c1ccc(OC(F)(F)F)cc1` [ABD742, N-(trans-4-Hydroxycyclohexyl)-2-methyl-4′-(trifluoromethoxy)biphenyl-4-sulfonamide], in the series on J774 macrophages (Mus musculus, read-out: IC50), the half-maximal inhibitory concentration (IC50) was 770 nM. Regarding `O=S(=O)(N[C@H]1CC[C@H](O)CC1)c1ccc(-c2ccc(Cl)cc2Cl)cc1OC(F)(F)F` [ABD756, 2′,4′-Dichloro-N-(trans-4-hydroxycyclohexyl)-3-(trifluoromethoxy)biphenyl-4-sulfonamide], in the series with J774 macrophages (Mus musculus, read-out: IC50), the concentration for half-maximal inhibition (IC50) turned out to be 2180 nM. Regarding `O=S(=O)(N[C@H]1CC[C@H](NCC(F)(F)F)CC1)c1ccc(-c2ccc(F)cc2F)cc1` [ABD865, 2′,4′-Difluoro-N-(trans-4-(2,2,2-trifluoroethylamino)cyclohexyl)biphenyl-4-sulfonamide], in the series with J774 macrophages (Mus musculus, read-out: IC50), the half-maximal inhibitory concentration (IC50) stood at 5900 nM. The same measure, in the same setting: next, `O=S(=O)(NC1CCC(N2CCOCC2)CC1)c1ccc(-c2ccc(F)cc2F)cc1` (centres unmarked) [ABD821, 2′,4′-Difluoro-N-(4-morpholinocyclohexyl)biphenyl-4-sulfonamide]: more than 10000 nM.

Consider `O=S(=O)(Nc1cccc(CO)c1)c1ccc(-c2ccc(F)cc2F)cc1` [ABD456, 2′,4′-difluoro-biphenyl-4-sulfonic acid (3-hydroxymethyl-phenyl)-amide, reference compound], for which the IC50 with J774 macrophages (Mus musculus, read-out: IC50) came to 250 nM. This molecule yielded a Solubility in series [1] of 0.04 mg/mL (≈ 107 µM).

Turning to `CCNC1CCC(NS(=O)(=O)c2ccc(-c3ccc(F)cc3F)cc2)CC1` (centres unmarked) [ABD817, N-(4-(Ethylamino)cyclohexyl)-2′,4′-difluorobiphenyl-4-sulfonamide], the half-inhibitory concentration (IC50) with J774 macrophages (Mus musculus, read-out: IC50) is less than 1000 nM. Take `CNC[C@H]1CC[C@@H](NS(=O)(=O)c2ccc(-c3ccc(F)cc3F)cc2)CC1` [ABD824, 2′,4′-Difluoro-N-(cis-4-((methylamino)methyl)cyclohexyl)biphenyl-4-sulfonamide]: the half-inhibitory concentration (IC50) in the series with J774 macrophages (Mus musculus, read-out: IC50) is 7200 nM.

As to `CNC1CCC(NS(=O)(=O)c2ccc(-c3ccc(F)cc3F)cc2)CC1` (centres unmarked) [ABD816, 2′,4′-Difluoro-N-(4-(methylamino)cyclohexyl)biphenyl-4-sulfonamide], the IC50 in the series with J774 macrophages (Mus musculus, read-out: IC50) came to 800 nM. Still for that read-out and setting: with `CN(C)C[C@H]1CC[C@@H](NS(=O)(=O)c2ccc(-c3ccc(F)cc3F)cc2)CC1` [ABD826, N-(cis-4-((Dimethylamino)methyl)cyclohexyl)-2′,4′-difluorobiphenyl-4-sulfonamide] the figure was 1000 nM; with `O=S(=O)(NC1CCC(N2CCCC2)CC1)c1ccc(-c2ccc(F)cc2F)cc1` (centres unmarked) [ABD820, 2′,4′-Difluoro-N-(4-(pyrrolidin-1-yl)cyclohexyl)biphenyl-4-sulfonamide], 2500 nM; with `COc1ccc(-c2ccc(S(=O)(=O)N[C@H]3CC[C@H](O)CC3)cc2F)cc1` [ABD710, 2-Fluoro-N-(trans-4-hydroxycyclohexyl)-4′-methoxybiphenyl-4-sulfonamide], 1980 nM. For `O=S(=O)(N[C@H]1CC[C@@H](NCC(F)(F)F)CC1)c1ccc(-c2ccc(F)cc2F)cc1` [ABD864, 2′,4′-Difluoro-N-(cis-4-(2,2,2-trifluoroethylamino)cyclohexyl)biphenyl-4-sulfonamide], the IC50 in the series on J774 macrophages (Mus musculus, read-out: IC50) is more than 10000 nM.
